According to patent publication US11471502B2, “Neuroprotective peptide” (UNIVERSITY COLLEGE CARDIFF C[…], priority 2017, dated 2022):

Tests used:
[1] = test system: ERK signalling in the striatum; experiment: Single in vivo injection, IHC/immunofluorescence of nuclear and cytoplasmic ERK markers in striatum; set-up: species or system mouse; conditions: 1 h
Method: (§1) a) RB5 peptide selectively promoted activation of ERK2. Acute striatal slices either pre-treated with Scramble (SCR) or RB5 peptide (50 μM) and then stimulated 10 minutes with glutamate (GLU) (100 μM) or vehicle were analysed in Western blot (left panel) and probed with anti phospho ERK antibodies (p44^ERK1 and p42^ERK2) and anti ERK1/2 antibody. GAPDH was used as loading control. […] No changes were detected in the total ERK1 and ERK2 levels. GAPDH was used as loading control. […] Mice injected with a single dose of CPP-SCR or CPP-RB5 peptides (20 mg/kg, i.p.) were rapidly perfused 1 h later and brains were dissected and further analysed for IHC and immunofluorescence. Representative photomicrographs of pERK1/2, pMSK, pAch3, pELK1 and c-Fos expression in the striatum. […] Two-way ANOVA Bonferroni post hoc comparison: one black star, p<0.05, two black stars, p<0.01, one white star, p<0.001. p) Dose response curve of RB5 peptide for ERK activation. 200 μm thick striatal slices were freshly prepared from 2-month old mice and transferred into a perfusion chamber for 1 h at 32° C. Slices were pre-treated with different doses of RB5 or scrambled control. After 1 h, slices for each dose was fixed in PFA 4% for 15 min. 18 μm cryo-sections were processed for immunohistochemistry with anti-phospho p44/p42 MAP kinase. Neuronal quantification was performed with ImageJ software by counting the number of phospho-ERK positive cells in each slice. The level of activation is expressed on the Y-axis as arbitrary units (AU). Doses are reported in a logarithmic scale (Log 10) on the X-axis. The EC50 was calculated using GraphPad Prism software.
At the indicated times after drug treatments, animals were anaesthetised and transcardially perfused with ice-cold buffered 4% PFA. Brains were extracted, post-fixed overnight and transferred to 30% buffered sucrose for 24 h. Coronal sections were cut to a 35 μm thickness on a freezing microtome and stored in a cryoprotective solution at −20° C. until processing for immunohistochemistry or immunofluorescence.
1 h after CPP-RB5/CPP-SCR (20 mg/kg, i.p.) mice were anaesthetized and perfused via intracardiac infusion of ice-cold 4% PFA. Brains were rapidly extracted, post-fixed overnight and transferred to 25% buffered sucrose for 24 h. Coronal sections were cut at 30 μm thickness on a freezing microtome and stored in a cryoprotective solution at −20° C. until they were processed for immunohistochemistry. Free-floating sections were incubated with primary antibodies against anti-phospho-p44/42 MAP kinase (Thr202/Tyr204), anti-phospho-Elk-1 (Ser383), anti-phospho-Kv4.2 (Thr607)-R, anti-phospho-MSK-1, anti-phospho-MEK-1, c-Fos and Tyrosine Hydroxylase overnight at 4° C. Sections were then incubated with biotinylated goat anti-rabbit IgG (1:200, Vector Labs) for 2 h. Detection of the bound antibodies was carried out using a standard peroxidase-based method (ABC-kit, Vectastain, Vector Labs), followed by a DAB and H2O2 solution. Quantification of positive neurons were counted from striatum in 2-3 sections per mouse, bilaterally. Sample areas were visualized under a 20× objective in a Leica DM IRB microscope by a blind investigator to condition and counts per region were averaged across the sections using the ImageJ software.

[2] = test system: embryonic striatal cultures; experiment: TUNEL apoptosis in neuronal embryonic striatal cultures; format: cell-based, mouse
Method: Data are expressed as Mean±SEM, n=5. Two-way ANOVA Bonferroni post-hoc comparison **p<0.01.
Embryonic cultures (E16) were prepared from striata of WT mice, plated onto poly-L-lysine coated glass and kept for 10 days in culture medium as previously described (Fasano et al, Biol Psy 2009). Two different concentrations (20 μM and 50 μM) of CPP-RB5 and CPP-SCR peptides were added to the culture medium by the third day and replaced every day. On day 11, cells were fixed with 4% PFA pH 7.4 in PBS for 10 min.
The DeadEnd Colorimetric TUNEL System (Promega) was used to detect apoptotic cells in cultured cells labelling the fragmented DNA of apoptotic cells using a modified TUNEL assay. TUNEL staining was realized with diaminobenzide (DAB) following the manufacture's protocol. Sample areas were digitized through a video camera (Nicon) connected to a Zeiss microscope using a 20× objective. 4 areas were counted and averaged for each plate.

[3] = test system: Tg2576 mice; experiment: Contextual Fear Conditioning in Tg2576 mice; format: in vivo, mouse; conditions: 20 mg/kg i.p. before CFC training, retention 24 h later
Method: 7 months old Tg2576 mice and WT mice were treated with either CPP-SCR or CPP-RB5 (20 mg/kg, i.p.) before Contextual Fear Conditioning (CFC) training and tested for memory retention 24 h later. Contextual Fear (CF) memory impairment in Tg2576 mice is fully rescued by RB5 treatment. Values are reported as % of time spent freezing. Data are expressed as Mean±SEM. *p<0.05**p<0.01.
Mice protocol: after 120 sec of exploration, mice received 5 foot shocks (0.7 mA, 2-s duration, separated by 60-s intervals) delivered through the grid floor. Context Fear Memory was assessed 24 h later by returning mice for 5 min to the conditioning chamber and not delivering a foot shock.
For all protocols, freezing behavior served as a measure of conditioned fear to the context during the conditioning and retrieval tests of the behavioural procedures. This was video-recorded and quantified by an observer blind to the experimental group. One unit of freezing was defined as a continuous absence of movement other than that required for respiration in 1 s sampled every 10 s.

[4] = test system: MPTP treated mice; experiment: Subacute MPTP mouse model of Parkinson's Disease; format: in vivo; conditions: 4 days
Method: Adult mice were treated with MPTP or vehicle (20 mg/kg i.p.) for 4 days. […] Two-way ANOVA Bonferroni post-hoc comparison *p<0.05**p<0.01.
Two-way ANOVA Bonferroni post-hoc comparison *p<0.05**p<0.01
We have assessed the neuroprotective effect of RB5 in the MPTP (1-methyl-4-phenyl-1,2,3,6-tetrahydropyridine) neurotoxin model of Parkinson's Disease (FIG. 6). Mice have been treated with MPTP or vehicle (20 mg/kg, i.p) for 4 days. RB5 or scramble peptide (20 mg/kg, i.p) was injected 1 h before MPTP/vehicle.

[5] = molecular target: phospho p44/p42 MAP kinase; experiment: Dose response curve of RB5 for ERK activation in striatal slices; format: cell-based, mouse; conditions: 200 μm striatal slices, 1 h pre-treatment; read-out: EC50 for enhancing pERK (phospho-ERK positive cells)
Method: as §1, with “18 μm cryo-sections were processed for immunohistochemistry with anti-phospho p44/p42 MAP kinase.” left out, “The level of activation is expressed on the Y-axis as arbitrary units (AU). Doses are reported in a logarithmic scale (Log 10) on the X-axis.” left out

Compound	nuclear ERK-dependent signalling and gene transcription (pMSK, pAcH3, pELK, c-Fos) ([1]; 20 mg/kg i.p.)	phosphorylation of the cytoplasmic markers (pMEK-1, pVGK+, pS6) ([1]; 20 mg/kg i.p.)	striatal ERK phosphorylation (pERK1/2) ([1]; 20 mg/kg i.p.)	apoptotic levels (TUNEL apoptotic nuclei) ([2]; higher dose (50 μM), 7 days, vs Scramble)	Contextual Fear (CF) memory impairment (% of time spent freezing) [3]	TH loss in Substantia Nigra ([4]; 20 mg/kg i.p. 1 h before MPTP 20 mg/kg)	apoptotic cells (TUNEL, nigral neurones) ([4]; 20 mg/kg i.p. 1 h before MPTP)	neurodegeneration (TH, TUNEL, cleaved caspase 3) ([4]; 20 mg/kg i.p. 1 h before MPTP)	pre-apoptotic state (Cleaved Caspase-3) ([4]; 20 mg/kg i.p. 1 h before MPTP)	EC50 [5] [µM]	cytoplasmic signalling measured by ribosomal S6 phosphorylation ([1]; 20 mg/kg)	phosphorylation of voltage-gated potassium channel (pKv4.2) and MEK-1 ([1]; 20 mg/kg, vs CPP-SCR)	reduction of apoptosis compared to CPP-SCR values ([2]; 50 μM, 7 consecutive days, TUNEL) [%]
CSCC[C@H](NC(=O)[C@H](CCC(=O)O)NC(=O)[C@@H](NC(=O)[C@H](CCC(=O)O)NC(=O)CNC(=O)[C@@H]1CCCN1C(=O)[C@@H](NC(=O)CNC(=O)[C@@H]1CCCN1C(=O)CNC(=O)[C@@H](NC(=O)CNC(=O)[C@H](CCC(=O)O)NC(=O)[C@@H](NC(=O)[C@H](CCCNC(=N)N)NC(=O)[C@H](CCCNC(=N)N)NC(=O)[C@@H]1CCCN1C(=O)[C@H](CCC(=O)O)NC(=O)CNC(=O)CNC(=O)CNC(=O)CNC(=O)CNC(=O)[C@H](CCC(N)=O)NC(=O)[C@@H]1CCCN1C(=O)[C@@H]1CCCN1C(=O)[C@H](CCCNC(=N)N)NC(=O)[C@H](CCCNC(=N)N)NC(=O)[C@H](CCCNC(=N)N)NC(=O)[C@H](CCC(N)=O)NC(=O)[C@H](CCCNC(=N)N)NC(=O)[C@H](CCCNC(=N)N)NC(=O)[C@H](CCCCN)NC(=O)[C@H](CCCCN)NC(=O)[C@H](CCCNC(=N)N)NC(=O)CNC(C)=O)[C@@H](C)O)C(C)C)C(C)C)C(C)C)C(=O)N[C@H](C(=O)N[C@@H](CCCCN)C(=O)NCC(=O)N[C@@H](CCC(N)=O)C(=O)N1CCC[C@H]1C(=O)N[C@@H](Cc1ccccc1)C(=O)N[C@@H](CC(=O)O)C(=O)N[C@@H](C(=O)O)C(C)C)C(C)C [RB5]	selective activation	did not influence	enhanced	significant reduction of apoptotic levels	fully rescued	significant reduction of TH loss	significant reduction of apoptotic cells	Neurodegeneration was prevented	significant reduction of the pre-apoptotic state	3.4			
GRKKRRQRRRPPQGGGGGEPRRTEGVGPGVPGEVEMVKGQPFDV (listed as Homo sapiens) [CPP-RB5]	significantly increased		significantly enhanced		rescued already present memory impairments in aged Tg2576 mice back to WT levels						at a lesser extent reduced	comparable between the two treatments	32
